Each structure is given as a SMILES string. Several values for one entry are separate records, joined by “and”; a condition that tells them apart may be missing. Equal values may be shown once. Read-outs that look alike come from different tables or passages of the source.

Common to all, as to format: cell-based
For one test, the system named is Cercospora beticola. Put plainly: in vitro-Test with Cercospora beticola (microtiter growth inhibition). The conditions noted are these: alone. Here is the method: (§1) The degree of efficacy expressed in % is denoted: 0% means an efficacy, which corresponds to that of the control, while an efficacy of 100% means that no disease is observed.
(§2) If the actual fungicidal activity exceeds the calculated value, then the activity of the combination is super-additive, i.e. a synergistic effect exists. In this case, the efficacy, which was actually observed, must be greater than the value for the expected efficacy (E), that was calculated from the abovementioned formula.
(§3) Example: In Vitro-Test with Fungal Microorganisms
(§4) Wells of 96-well microtiter plates are filled with 10 μl of a preparation of test compound or compound combination in methanol+emulsifier alkylaryl-polyglycol-ether. Thereafter, the solvent is evaporated in a hood. At the next step, 100 μl of liquid potato dextrose medium is given into each well, that has been amended with an appropriate concentration of spores or mycelium suspension of the test fungus.
(§5) With the aid of a photometer, the extinction in all wells is measured at the wavelength of 620 nm.
(§6) The microtiter plates are incubated at 20° C. and 85% relative humidity. The inhibition of growth is determined again photometrically 3-5 days after the application. Efficacy is calculated in relation to the untreated control, 0% efficacy means fungal growth as high as in untreated control while 100% efficacy means no fungal growth is measured.

Another test deals with Diaporthe citri. Put plainly: in vitro-Test with Diaporthe citri (microtiter growth inhibition). Here is the method: as §2, §3, §4, §5, §6
The subject of another test is Cordana musae. Put plainly: in vitro-Test with Cordana musae (microtiter growth inhibition). The conditions noted are these: single substance. Here is the method:
as §1, §2, §3, §4, §5, §6

For another test, the system named is Fusarium culmorum. Put plainly: in vitro-Test with Fusarium culmorum (microtiter growth inhibition). The conditions noted are these: Fusarium culmorum, read-out: Efficacy. Here is the method:
as §1, §2, §3, §4, §5, §6

A further test deals with Alternaria alternate. The test can be described thus: in vitro-Test with Alternaria alternate (microtiter growth inhibition). On the procedure:
as §1, §2, §3, §4, §5, §6

For test [1], the system named is Ustilago segetum var. avenae. The test can be described thus: in vitro-Test with Ustilago segetum var. avenae (microtiter growth inhibition). The conditions noted are these: single compound. On the procedure: as §1, §2, §3, §4, §5, §6
In another test the test system is Parastagonospora nodorum. Put plainly: in vitro-Test with Parastagonospora nodorum (microtiter growth inhibition). On the procedure:
as §1, §2, §3, §4, §5, §6

A further test deals with Botrytis cinerea. The test can be described thus: in vitro-Test with Botrytis cinerea (microtiter growth inhibition). The following applies: applied alone. On the procedure:
as §1, §2, §3, §4, §5, §6

Setting [2] is: Cercospora beticola, read-out: Efficacy %.
Setting [3] is: Diaporthe citri, applied alone, read-out: Efficacy.
[4] abbreviates: Neocordana musae, 0.8 ppm, read-out: Efficacy.
Where [5] appears, read: Neocordana musae, 20 ppm, read-out: Efficacy.
[6] abbreviates: Neocordana musae, read-out: Efficacy.
Where [7] appears, read: Alternaria, 20 ppm, alone, read-out: Efficacy %.
Setting [8] is: Alternaria, applied alone, read-out: Efficacy.
The mark [9] stands for this setting: Alternaria, applied alone, 20 ppm, read-out: Efficacy.
The mark [10] stands for this setting: Diaporthe citri, read-out: Efficacy.
Where [11] appears, read: Alternaria, alone, read-out: Efficacy %.
[12] abbreviates: Diaporthe citri, applied alone, 4 ppm, read-out: Efficacy.
[13] abbreviates: Alternaria, 4 ppm, alone, read-out: Efficacy %.

For `Fc1ccc(Oc2ccnc3cc(Cl)cc(Cl)c23)cc1` [Compound 13.005, quinoxyfen], in the test on Cercospora beticola (setting [2]), the inhibition of growth at 0.08 ppm was 0%. The inhibition of growth at 0.4 ppm was 2% with Cercospora beticola (Cercospora beticola, 0.4 ppm, read-out: Efficacy %) and 0% with Diaporthe citri (setting [3]). In addition, the inhibition of growth at 10 ppm was determined as 20% in the test on Cercospora beticola (setting [2]); 54% in the test with Diaporthe citri (setting [3]); 15% with Cordana musae (Neocordana musae, 10 ppm, read-out: Efficacy). Besides, the inhibition of growth at 2 ppm in the test with Cordana musae (Neocordana musae, 2 ppm, read-out: Efficacy) is 1%.

On to `COc1cc(C)c(C(=O)c2c(OC)ccc(Br)c2C)c(OC)c1OC` [Compound 15.016, metrafenone], for which, in the test on Fusarium culmorum, the inhibition of growth at 0.8 ppm is 0%, the inhibition of growth at 4 ppm stood at 0% and the inhibition of growth at 20 ppm worked out at 0%. Moreover, the inhibition of growth at 0.8 ppm with Cordana musae (setting [4]) amounted to 0%. Further, in the test with Cordana musae (setting [5]), the inhibition of growth at 20 ppm came to 22%.

On to `O=C1C2CC=CCC2C(=O)N1SC(Cl)(Cl)Cl` (centres unmarked) [captan], for which the inhibition of growth at 4 ppm in the test with Cercospora beticola (Cercospora beticola, 4 ppm, read-out: Efficacy %) stood at 73%; in the test on Cordana musae (setting [6]) it was 2%. Moreover, the results for the inhibition of growth at 0.8 ppm in the test on Fusarium culmorum and in the test on Alternaria alternate (setting [8]) were 2% and 10%, respectively. For the same compound, the inhibition of growth at 20 ppm in the test on Fusarium culmorum was 5%; in the test on Alternaria alternate (setting [7]) it was 83%; in the test with Alternaria alternate (setting [9]), 100%. In addition, the Efficacy with Cordana musae (0.8 ppm) is 0%; with Alternaria alternate (applied alone, 4 ppm), 100%.

As for `O=C1c2ccccc2C(=O)N1SC(Cl)(Cl)Cl` [folpet], the inhibition of growth at 0.08 ppm in the test on Cercospora beticola (setting [2]) was found to be 7%; in the test on Diaporthe citri (setting [10]) it was 20%; in the test with Diaporthe citri (setting [3]), 0%; in test [1] (0.08 ppm, read-out: Efficacy %), 12%; in the test with Alternaria alternate (Alternaria, applied alone, 0.08 ppm, read-out: Efficacy), 5%. Moreover, the inhibition of growth at 2 ppm with Cercospora beticola (Cercospora beticola, 2 ppm, read-out: Efficacy %) turned out to be 100%; in the test with Fusarium culmorum (2 ppm) it was 62%; with Diaporthe citri (Diaporthe citri, 2 ppm, read-out: Efficacy), 98%; in the test with Alternaria alternate (Alternaria, applied alone, 2 ppm, read-out: Efficacy) it was 100%. Moreover, the inhibition of growth at 10 ppm with Cercospora beticola (setting [2]) stood at 100%; in the test on Fusarium culmorum (10 ppm) it was 100%; with Diaporthe citri (setting [3]) it was 99%; in the test on Alternaria alternate (Alternaria, applied alone, 10 ppm, read-out: Efficacy), 100%. In addition, the inhibition of growth at 0.4 ppm in the test with Fusarium culmorum (0.4 ppm) was 0%; in the test with Diaporthe citri (setting [10]), 33%; in the test on Diaporthe citri (setting [3]), 53%; with Alternaria alternate (setting [11]), 0%; in the test with Alternaria alternate (setting [8]), 1%.

Regarding `N#Cc1ccccc1NC(=O)c1snc(Cl)c1Cl` [isotianil], the Efficacy % in the test on Cercospora beticola (0.8 ppm) was 17%; with Cercospora beticola (4 ppm), 17%; with Cercospora beticola (20 ppm), 12%; in the test with Cercospora beticola (100 ppm), 29%; in the test on Alternaria alternate (4 ppm, alone), 0%; in the test with Alternaria alternate (20 ppm, alone) it was 7%. Moreover, the Efficacy % in the test with Alternaria alternate (100 ppm, alone) is reported as 0%. Also, the Efficacy in the test on Diaporthe citri (0.8 ppm) is 0%; with Diaporthe citri (4 ppm) it was 24%; in the test with Diaporthe citri (20 ppm), 0%; with Diaporthe citri (100 ppm), 0%; in the test with Diaporthe citri (applied alone, 0.8 ppm), 12%; with Diaporthe citri (applied alone, 4 ppm), 19% and 23%. Also, the Efficacy in the test on Diaporthe citri (applied alone, 20 ppm) was 5% and 14%; in the test on Diaporthe citri (applied alone, 100 ppm), 5%; with Cordana musae (20 ppm), 3%; in the test on Cordana musae (100 ppm) it was 16%.

`CC(O)(Cn1cncn1)c1ccc(Oc2ccc(Cl)cc2)cc1C(F)(F)F` (centres unmarked) [mefentrifluconazole]: the Efficacy with Parastagonospora nodorum (0.008 ppm) is listed as 85%; with Parastagonospora nodorum (0.04 ppm), 97%; with Parastagonospora nodorum (0.2 ppm) it was 99%; in the test on Parastagonospora nodorum (1.0 ppm), 100%; in the test with Diaporthe citri (applied alone, 0.04 ppm), 85%; in the test with Diaporthe citri (applied alone, 0.2 ppm) it was 100%. Also, the Efficacy in the test on Diaporthe citri (applied alone, 1.0 ppm) came out at 100%; with Botrytis cinerea (0.04 ppm), 36%; with Botrytis cinerea (0.2 ppm) it was 63%; with Botrytis cinerea (1.0 ppm), 100%; in the test on Cordana musae (0.008 ppm), 0%; with Cordana musae (1.0 ppm) it was 100%. The Efficacy % in the test with Cercospora beticola (0.04 ppm) is 100%; in the test with Cercospora beticola (0.2 ppm), 100%; in test [1] (0.008 ppm) it was 5%; in test [1] (0.2 ppm), 67%; in test [1] (1.0 ppm) it was 100%; with Alternaria alternate (0.008 ppm, alone), 0%. For the same compound, in the test on Alternaria alternate (1.0 ppm, alone), the Efficacy % came to 100%.

In the case of `OC(Cc1ccccc1Cl)(Cn1nc[nH]c1=S)C1(Cl)CC1` (centres unmarked) [prothioconazole], the inhibition of growth at 0.008 ppm in the test with Cercospora beticola (Cercospora beticola, 0.008 ppm, read-out: Efficacy %) is 0%; with Cordana musae (Neocordana musae, 0.008 ppm, read-out: Efficacy), 0%; in the test with Alternaria alternate (Alternaria, 0.008 ppm, alone, read-out: Efficacy %), 0%. Further, the inhibition of growth at 0.04 ppm in the test on Cercospora beticola (Cercospora beticola, 0.04 ppm, read-out: Efficacy %) was found to be 88%; with Cordana musae (Neocordana musae, 0.04 ppm, read-out: Efficacy) it was 64%; in the test on Alternaria alternate (Alternaria, applied alone, 0.04 ppm, read-out: Efficacy), 32%. The inhibition of growth at 0.2 ppm in the test with Cordana musae (Neocordana musae, 0.2 ppm, read-out: Efficacy) is 100%; with Alternaria alternate (setting [11]) it was 100%; in the test on Alternaria alternate (setting [8]), 99%. The inhibition of growth at 1 ppm in the test with Alternaria alternate (Alternaria, 1.0 ppm, alone, read-out: Efficacy %) was determined as 100%; in the test with Alternaria alternate (Alternaria, applied alone, 1.0 ppm, read-out: Efficacy) it was 100%.

For the compound `Cc1cc(C)nc(Nc2ccccc2)n1` [pyrimethanil], the Efficacy in the test on Parastagonospora nodorum (0.8 ppm) is reported as 100%; in the test on Parastagonospora nodorum (4 ppm) it was 100%; in the test with Botrytis cinerea (0.8 ppm) it was 96%; in the test with Botrytis cinerea (4 ppm), 99%. Besides, the inhibition of growth at 0.8 ppm with Cercospora beticola (Cercospora beticola, 0.8 ppm, read-out: Efficacy %) came out at 0%; in the test on Cordana musae (setting [4]), 9%; in the test with Alternaria alternate (setting [11]), 88%; in the test with Alternaria alternate (setting [8]), 100%. Also, the inhibition of growth at 20 ppm with Cercospora beticola (Cercospora beticola, 20 ppm, read-out: Efficacy %) turned out to be 100%; with Cordana musae (setting [5]) it was 15%; in the test with Alternaria alternate (setting [7]) it was 100%; in the test on Alternaria alternate (setting [9]), 100%. Further, the inhibition of growth at 4 ppm with Diaporthe citri (setting [12]) stood at 94%; in the test on Alternaria alternate (setting [13]), 99%; in the test on Alternaria alternate (Alternaria, applied alone, 4 ppm, read-out: Efficacy), 100%.

On to `CCCN(CC)CC1COC2(CCC(C(C)(C)C)CC2)O1` (centres unmarked) [spiroxamine], for which the inhibition of growth at 0.8 ppm in the test on Fusarium culmorum came to 0%; with Diaporthe citri (Diaporthe citri, applied alone, 0.8 ppm, read-out: Efficacy), 0%; in test [1] (0.8 ppm, read-out: Efficacy %), 0%; with Alternaria alternate (setting [11]), 1%. The inhibition of growth at 4 ppm with Fusarium culmorum is 0%; with Diaporthe citri (setting [12]) it was 0%; in test [1] (4 ppm, read-out: Efficacy %), 0%; in the test with Cordana musae (setting [6]), 0%; in the test on Alternaria alternate (setting [13]), 1%. The inhibition of growth at 20 ppm with Fusarium culmorum worked out at 2%; in the test with Diaporthe citri (Diaporthe citri, applied alone, 20 ppm, read-out: Efficacy) it was 6%; in test [1] (20 ppm, read-out: Efficacy %) it was 87%; with Cordana musae (setting [5]), 4%. For the same compound, the Efficacy in the test with Botrytis cinerea (0.8 ppm) worked out at 5%; in the test on Botrytis cinerea (4 ppm), 4%.

(Values after patent US20230165252A1, “ACTIVE COMPOUND COMBINATIONS” (Bayer Aktiengesellschaft, priority 2020, published 2023).)
